Results as given in paper PMC8956739, “A synthetic lipopeptide targeting top-priority multidrug-resistant Gram-negative pathogens” (Nature Communications, 2022).
Values after ≈ are worked out from the molar mass of the structure shown. Read-outs that look alike come from different tables or passages of the source. Residues, ends and D or L forms follow the SMILES beside them.

Assays:
A. baumannii FADDI-AB051 = format: cell-based, Acinetobacter baumannii
Procedure, shortened: (§1)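 Cation-adjusted Mueller–Hinton broth was used with the broth microdilution method to set MICs against clinical isolates. A separate run on P. aeruginosa ATCC 27853 added 10% Survanta® (v/v, 2.5 mg/mL phospholipids) to gauge lung-surfactant binding of polymyxins.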

A. baumannii FADDI-AB144 = format: cell-based, Acinetobacter baumannii
Procedure, shortened: as §1

A. baumannii FADDI-AB161 = format: cell-based, Acinetobacter baumannii
Procedure, shortened: as §1

[1] = test system: P. aeruginosa FADDI-PA102; assay: MIC, polymyxin-resistant isolate; format: cell-based, Pseudomonas aeruginosa; details: carbapenem-resistant
Protocol: MICs were determined in cation-adjusted Mueller–Hinton broth (CaMHB) by the broth micro-dilution method against ATCC strains and clinical isolates. MICs in the presence of Survanta® were determined as described above against P. aeruginosa ATCC 27853. In the 100 μL of fresh CaMHB containing polymyxins, 10% Survanta® (v/v, 2.5 mg/mL phospholipids) was added. MICs in the presence and absence of Survanta® were compared to determine the effect of binding to lung surfactant on the antibacterial activity of polymyxins.

P. aeruginosa PAM2035 = format: cell-based, Pseudomonas aeruginosa; details: nitrocefin hydrolysis, without Mg2+
Protocol: (§2) Bacterial strains were seeded in 50 mL of Luria-Bertani (LB) broth at OD600 0.05 and grown at 37 °C for 3-4 h until an OD600 of 0.6–0.8 was achieved. Bacterial cells were washed twice with 25 mL of buffer (50 mM sodium phosphate, 0.5% glucose, pH 7, with or without 1 mM Mg^2+), resuspended in 10 mL of the buffer, and then adjusted to an OD600 of 0.4. […] Bacterial suspension (50 μL, OD600 0.4) in buffer was added to the lipopeptide solutions and the rate of substrate hydrolysis was measured at 490 nm.
Activity of F365 and polymyxin B in the outer membrane permeabilization assay.
The outer and inner membranes of gram-negative bacteria are the sites of interaction and action of polymyxin antibiotics, respectively. These polycationic compounds bind to phosphate residues of lipid A and displace the magnesium and calcium ions that cross-bridge adjacent lipid A molecules thereby stabilizing the outer membrane. […]
as the main mechanism of action by polymyxin B and colistin. The outer membrane-permeabilizing effect of F365 at a wide range of concentrations was assessed by examining the rates of hydrolysis of a chromogenic β-lactam, nitrocefin, by intact cells of Pseudomonas aeruginosa. […]

[2] = test system: P. aeruginosa PAM1723 (overexpresses MexAB-OprM); format: cell-based, Pseudomonas aeruginosa; details: Leu-Nap hydrolysis
Protocol: as §2
(§3) Activity of F365 and polymyxin B in the efflux inhibition assay.
(§4) One of the consequences of disruption/permeabilization of the cytoplasmic membrane by polymyxins is the dissipation of the proton gradient across the cytoplasmic membrane. […]
(§5) these compounds are expected to inhibit proton-dependent transport activity across the cytoplasmic membrane including efflux. Efflux activity and its inhibition by F365 was assessed by examining the rates of hydrolysis of a fluorogenic substrate of efflux pumps, Leu-Nap, by intact cells of P. aeruginosa. For these experiments we used two strains of P. aeruginosa, PAM1723 and PAM1626. PAM1723 overexpresses the efflux pump MexAB-OprM and PAM1626 lacks this pump as well as several other pumps that extrude Leu-Nap. […] The rate of production of β-naphthylamine (recorded as an increase in fluorescence) is limited by the rate of entry of Leu-Nap into the cells. […]

P. aeruginosa PAM1626 = assay: Efflux inhibition assay (Leu-Nap hydrolysis), efflux-deficient strain; format: cell-based, Pseudomonas aeruginosa
Protocol: as §2, §3, §4, §5

[3] = Distribution, accumulation and metabolism in mouse kidneys (ME-SALDI-MS imaging, histology); format: in vivo; details: mouse, in vivo
Protocol: At 2 h after the last dose on Day 2, mice were rapidly euthanized. The left kidney was collected, flash-frozen in liquid nitrogen, and stored at -80 C for MS imaging analysis. The right kidney was fixed in 10% formalin for histological examination (Histopathology and Organ Pathology Unit at the University of Melbourne). The level of histological damage to the kidneys was graded as previously described. […] A total of 1 μL was spotted onto electrochemically etched, porous-silicon semiconductor substrates for desorption/ionization on silicon (DIOS)[39]. […] For lipopeptide distribution in mouse kidneys, serially sectioned 8-μm frozen slices of the kidney were loaded onto DIOS substrates and coated with a thin layer of α-CHCA using a matrix sprayer (TM-Sprayer, HTX) for MSI analysis. […] Mounted tissue was scanned for imaging alignment (Epson Perfection […]) and calibrated as previously described. Resulting polymyxin maps were visualized and normalized against the total ion current (TIC) of each section using IonView software (Shimadzu). Lipopeptide accumulation in mouse kidneys was determined by simultaneous […] analysis of kidney tissue from treated animals and serial dilutions of the drug deposited on control kidney tissue. […] The signal intensities were compared to the corresponding concentration standard curve to calculate the concentration of lipopeptide present. Putative metabolites in the kidneys treated with lipopeptides were identified by […]. Control kidney sections were used to differentiate lipopeptide metabolites from endogenous metabolites and MS/MS data from lipopeptide standards were used to differentiate lipopeptide metabolites from the parent ion generated via CID processed in the acquisition software (MALDI Solutions, Shimadzu). Levels of accumulated lipopeptide metabolites were determined by normalization to the parent ion in MSI data.

| Compound | MIC A. baumannii FADDI-AB051 (A. baumannii FADDI-AB051; carbapenem-resistant) | MIC A. baumannii FADDI-AB144 (A. baumannii FADDI-AB144; polymyxin-resistant) | MIC A. baumannii FADDI-AB161 (A. baumannii FADDI-AB161; polymyxin-resistant) | MIC P. aeruginosa FADDI-PA102 [1] | IC50 for membrane permeabilization (P. aeruginosa PAM2035) | IC50, inhibition of efflux activity [2] | effect on the rate of Leu-Nap hydrolysis (P. aeruginosa PAM1626) | MIC A. baumannii FADDI-AB051 (A. baumannii FADDI-AB051; FADDI-AB051) | MIC A. baumannii FADDI-AB144 (A. baumannii FADDI-AB144; FADDI-AB144) | MIC A. baumannii FADDI-AB161 (A. baumannii FADDI-AB161; FADDI-AB161) | level at time molar ([3]; female, Swiss, 10 umol/kg, 10 μmol/kg SC, 6 doses Day 1 and 3 doses Day 2, 2 h after last dose, read-out: Concentration in the kidney cortex region) | M1 metabolite in kidneys [3] | major metabolite in kidneys [3] |
| --- | --- | --- | --- | --- | --- | --- | --- | --- | --- | --- | --- | --- | --- |
| Polymyxin B [reference compound] | 0.5 µg/mL | 16 µg/mL | 8 µg/mL | 4 µg/mL | 1.15 ± 0.22 µg/mL | 7.6 ± 1.4 µg/mL | no effect |  |  |  |  |  |  |
| CC[C@@H]1NC(=O)[C@@H](CC(C)C)NC(=O)[C@H](CCN)NC(=O)[C@@H](NC(=O)[C@H](CN)NC(=O)[C@@H](NC(=O)[C@H](CCN)NC(=O)c2ccc(Cl)cc2Cl)[C@@H](C)O)CCNC(=O)[C@H]([C@@H](C)O)NC(=O)[C@H](CCN)NC(=O)[C@H](CCN)NC1=O [Lipopeptide F365] (HELM PEPTIDE1{[O=C(c1ccc(Cl)cc1Cl)[*:2]].[Dab].T.[NC[C@H](N[*:1])C(=O)[*:2]].[Dab].[Dab].[dL].[Abu].[Dab].[Dab].T}$PEPTIDE1,PEPTIDE1,5:R3-11:R2$$$V2.0) |  |  |  | 4 µg/mL (≈ 3.45 µM) | 0.73 ± 0.07 µg/mL | 4.2 ± 1.5 µg/mL | no effect | 0.5 µg/mL (≈ 0.431 µM) | 32 µg/mL (≈ 27.6 µM) | 1 µg/mL (≈ 0.862 µM) | 20.8 µM | no M1 metabolite detected | M3 |
